Species on record: Rattus norvegicus
Test: Open TG-GATES - Regimen: Single
Assay type: toxicity, organism-based, Sprague-Dawley
Parameters: regimen Single, gender Male, age 6 weeks
Settings: in vivo, po, route gavage; for KIDNEY_L / KIDNEY_R / KIDNEY_TOTAL: tissue Kidney; for LIVER: tissue Liver; for ALT / AST / BUN / CRE / DBIL / GLC / IP / K / PL / RALB / TBIL / TC / TG / TP / gamma-GTP / ALP: tissue Plasma
[1] = 0 mg/kg, 3 h, tissue Blood, dose level Control
[2] = 0 mg/kg, 3 h, dose level Control
[3] = 0 mg/kg, 6 h, tissue Blood, dose level Control
[4] = 0 mg/kg, 6 h, dose level Control
[5] = 0 mg/kg, 9 h, tissue Blood, dose level Control
[6] = 0 mg/kg, 9 h, dose level Control
[7] = 0 mg/kg, 24 h, tissue Blood, dose level Control
[8] = 0 mg/kg, 24 h, dose level Control
[9] = 10 mg/kg, 3 h, tissue Blood, dose level Low
[10] = 10 mg/kg, 6 h, tissue Blood, dose level Low
[11] = 10 mg/kg, 9 h, tissue Blood, dose level Low
[12] = 10 mg/kg, 24 h, tissue Blood, dose level Low

Structure (SMILES): CC(C)OC(=O)C(C)(C)Oc1ccc(C(=O)c2ccc(Cl)cc2)cc1 [FENOFIBRATE]
- Bas [1]: 0.4%
- Eos [1]: 0.8%
- Fbg [1]: 289.4 mg/dL
- Ht [1]: 39.8%
- MCHC [1]: 32.5%
- Mono [1]: 4%
- RBC [1]: 616.8 x10_4/ul
- Ret [1]: 9%
- KIDNEY_L [2]: 0.8 g
- KIDNEY_R [2]: 0.8 g
- KIDNEY_TOTAL [2]: 1.5 g
- LIVER [2]: 7.9 g
- ALT [2]: 48.4 IU/L
- AST [2]: 83 IU/L
- BUN [2]: 9 mg/dL
- CRE [2]: 0.2 mg/dL
- DBIL [2]: 0.006 mg/dL
- GLC [2]: 182.6 mg/dL
- IP [2]: 9.5 mg/dL
- K [2]: 4.3 meq/L
- PL [2]: 140.8 mg/dL
- RALB [2]: 2.4 g/dL
- TBIL [2]: 0.048 mg/dL
- TC [2]: 77 mg/dL
- TG [2]: 41.2 mg/dL
- TP [2]: 5.2 g/dL
- gamma-GTP [2]: 1.4 IU/L
- Bas [3]: 0.4%
- Eos [3]: 0.8%
- Fbg [3]: 268.2 mg/dL
- Ht [3]: 40.1%
- MCHC [3]: 32.4%
- Mono [3]: 3%
- RBC [3]: 599.2 x10_4/ul
- Ret [3]: 9.6%
- KIDNEY_L [4]: 0.8 g
- KIDNEY_R [4]: 0.8 g
- KIDNEY_TOTAL [4]: 1.5 g
- LIVER [4]: 7.2 g
- ALP [4]: 1534.8 IU/L
- ALT [4]: 41.8 IU/L
- AST [4]: 81.8 IU/L
- BUN [4]: 9.6 mg/dL
- CRE [4]: 0.2 mg/dL
- DBIL [4]: 0.008 mg/dL
- GLC [4]: 173.8 mg/dL
- IP [4]: 9.7 mg/dL
- K [4]: 4.1 meq/L
- PL [4]: 142.6 mg/dL
- RALB [4]: 2.5 g/dL
- TBIL [4]: 0.056 mg/dL
- TC [4]: 82.4 mg/dL
- TG [4]: 44.6 mg/dL
- TP [4]: 5.4 g/dL
- gamma-GTP [4]: 1 IU/L
- Bas [5]: 0%
- Eos [5]: 1%
- Fbg [5]: 292.6 mg/dL
- Ht [5]: 39.3%
- MCHC [5]: 32.3%
- Mono [5]: 2.4%
- RBC [5]: 584.2 x10_4/ul
- Ret [5]: 9.6%
- KIDNEY_L [6]: 0.8 g
- KIDNEY_R [6]: 0.8 g
- KIDNEY_TOTAL [6]: 1.5 g
- LIVER [6]: 6.9 g
- ALP [6]: 1454.2 IU/L
- ALT [6]: 38.6 IU/L
- AST [6]: 75.8 IU/L
- BUN [6]: 8.4 mg/dL
- CRE [6]: 0.2 mg/dL
- DBIL [6]: 0.008 mg/dL
- GLC [6]: 178.8 mg/dL
- IP [6]: 9.5 mg/dL
- K [6]: 4 meq/L
- PL [6]: 145.8 mg/dL
- RALB [6]: 2.4 g/dL
- TBIL [6]: 0.058 mg/dL
- TC [6]: 83.2 mg/dL
- TG [6]: 38.6 mg/dL
- TP [6]: 5.2 g/dL
- gamma-GTP [6]: 1 IU/L
- Bas [7]: 0.2%
- Eos [7]: 1%
- Fbg [7]: 281.4 mg/dL
- Ht [7]: 39.1%
- MCHC [7]: 32.7%
- Mono [7]: 3%
- RBC [7]: 590.8 x10_4/ul
- Ret [7]: 9.3%
- KIDNEY_L [8]: 0.9 g
- KIDNEY_R [8]: 0.8 g
- KIDNEY_TOTAL [8]: 1.7 g
- LIVER [8]: 9.1 g
- ALT [8]: 50.4 IU/L
- AST [8]: 77.6 IU/L
- CRE [8]: 0.2 mg/dL
- DBIL [8]: 0.012 mg/dL
- GLC [8]: 186.2 mg/dL
- IP [8]: 8.5 mg/dL
- K [8]: 4.4 meq/L
- PL [8]: 153.6 mg/dL
- RALB [8]: 2.6 g/dL
- TBIL [8]: 0.04 mg/dL
- TC [8]: 82.8 mg/dL
- TG [8]: 65 mg/dL
- TP [8]: 5.6 g/dL
- gamma-GTP [8]: 0.8 IU/L
- Bas [9]: 0.2%
- Eos [9]: 0.6%
- Fbg [9]: 280.8 mg/dL
- Ht [9]: 40.3%
- MCHC [9]: 32.3%
- Mono [9]: 3.6%
- RBC [9]: 603 x10_4/ul
- Ret [9]: 10.2%
- KIDNEY_L (10 mg/kg, 3 h, dose level Low): 0.8 g
- KIDNEY_R (10 mg/kg, 3 h, dose level Low): 0.8 g
- KIDNEY_TOTAL (10 mg/kg, 3 h, dose level Low): 1.6 g
- LIVER (10 mg/kg, 3 h, dose level Low): 7.8 g
- ALP (10 mg/kg, 3 h, dose level Low): 1472.8 IU/L
- ALT (10 mg/kg, 3 h, dose level Low): 49.4 IU/L
- AST (10 mg/kg, 3 h, dose level Low): 83.6 IU/L
- BUN (10 mg/kg, 3 h, dose level Low): 9.8 mg/dL
- CRE (10 mg/kg, 3 h, dose level Low): 0.2 mg/dL
- DBIL (10 mg/kg, 3 h, dose level Low): 0.01 mg/dL
- GLC (10 mg/kg, 3 h, dose level Low): 178.4 mg/dL
- IP (10 mg/kg, 3 h, dose level Low): 10 mg/dL
- K (10 mg/kg, 3 h, dose level Low): 4.2 meq/L
- PL (10 mg/kg, 3 h, dose level Low): 140.8 mg/dL
- RALB (10 mg/kg, 3 h, dose level Low): 2.4 g/dL
- TBIL (10 mg/kg, 3 h, dose level Low): 0.058 mg/dL
- TC (10 mg/kg, 3 h, dose level Low): 80.4 mg/dL
- TG (10 mg/kg, 3 h, dose level Low): 43 mg/dL
- TP (10 mg/kg, 3 h, dose level Low): 5.2 g/dL
- gamma-GTP (10 mg/kg, 3 h, dose level Low): 1.4 IU/L
- Bas [10]: 0%
- Eos [10]: 0.8%
- Fbg [10]: 283 mg/dL
- Ht [10]: 39.7%
- Lym [10]: 69.4%
- MCHC [10]: 32%
- Mono [10]: 2.6%
- RBC [10]: 572.6 x10_4/ul
- Ret [10]: 11.1%
- KIDNEY_L (10 mg/kg, 6 h, dose level Low): 0.8 g
- KIDNEY_R (10 mg/kg, 6 h, dose level Low): 0.8 g
- KIDNEY_TOTAL (10 mg/kg, 6 h, dose level Low): 1.6 g
- LIVER (10 mg/kg, 6 h, dose level Low): 7.8 g
- ALP (10 mg/kg, 6 h, dose level Low): 1504.8 IU/L
- ALT (10 mg/kg, 6 h, dose level Low): 43.4 IU/L
- AST (10 mg/kg, 6 h, dose level Low): 77.2 IU/L
- BUN (10 mg/kg, 6 h, dose level Low): 8.8 mg/dL
- CRE (10 mg/kg, 6 h, dose level Low): 0.2 mg/dL
- DBIL (10 mg/kg, 6 h, dose level Low): 0.01 mg/dL
- GLC (10 mg/kg, 6 h, dose level Low): 180.2 mg/dL
- IP (10 mg/kg, 6 h, dose level Low): 10.2 mg/dL
- K (10 mg/kg, 6 h, dose level Low): 4.2 meq/L
- PL (10 mg/kg, 6 h, dose level Low): 128 mg/dL
- RALB (10 mg/kg, 6 h, dose level Low): 2.5 g/dL
- TBIL (10 mg/kg, 6 h, dose level Low): 0.056 mg/dL
- TC (10 mg/kg, 6 h, dose level Low): 71.6 mg/dL
- TG (10 mg/kg, 6 h, dose level Low): 36.8 mg/dL
- TP (10 mg/kg, 6 h, dose level Low): 5.4 g/dL
- gamma-GTP (10 mg/kg, 6 h, dose level Low): 1.4 IU/L
- Bas [11]: 0%
- Eos [11]: 1%
- Fbg [11]: 283 mg/dL
- Ht [11]: 39.6%
- MCHC [11]: 32.4%
- Mono [11]: 1.4%
- RBC [11]: 608.4 x10_4/ul
- Ret [11]: 9.5%
- KIDNEY_L (10 mg/kg, 9 h, dose level Low): 0.8 g
- KIDNEY_R (10 mg/kg, 9 h, dose level Low): 0.8 g
- KIDNEY_TOTAL (10 mg/kg, 9 h, dose level Low): 1.6 g
- LIVER (10 mg/kg, 9 h, dose level Low): 7 g
- ALP (10 mg/kg, 9 h, dose level Low): 1360.4 IU/L
- ALT (10 mg/kg, 9 h, dose level Low): 42.4 IU/L
- AST (10 mg/kg, 9 h, dose level Low): 77.4 IU/L
- BUN (10 mg/kg, 9 h, dose level Low): 7.4 mg/dL
- CRE (10 mg/kg, 9 h, dose level Low): 0.1 mg/dL
- DBIL (10 mg/kg, 9 h, dose level Low): 0.01 mg/dL
- GLC (10 mg/kg, 9 h, dose level Low): 175.2 mg/dL
- IP (10 mg/kg, 9 h, dose level Low): 9.8 mg/dL
- K (10 mg/kg, 9 h, dose level Low): 3.9 meq/L
- PL (10 mg/kg, 9 h, dose level Low): 124 mg/dL
- RALB (10 mg/kg, 9 h, dose level Low): 2.4 g/dL
- TBIL (10 mg/kg, 9 h, dose level Low): 0.054 mg/dL
- TC (10 mg/kg, 9 h, dose level Low): 70.8 mg/dL
- TG (10 mg/kg, 9 h, dose level Low): 31.2 mg/dL
- TP (10 mg/kg, 9 h, dose level Low): 5.2 g/dL
- gamma-GTP (10 mg/kg, 9 h, dose level Low): 0.8 IU/L
- Bas [12]: 0%
- Eos [12]: 1%
- Fbg [12]: 270 mg/dL
- Ht [12]: 38.6%
- MCHC [12]: 32.4%
- Mono [12]: 3.8%
- RBC [12]: 590.4 x10_4/ul
- Ret [12]: 8.6%
- KIDNEY_L (10 mg/kg, 24 h, dose level Low): 0.8 g
- KIDNEY_R (10 mg/kg, 24 h, dose level Low): 0.8 g
- KIDNEY_TOTAL (10 mg/kg, 24 h, dose level Low): 1.6 g
- LIVER (10 mg/kg, 24 h, dose level Low): 9.2 g
- ALP (10 mg/kg, 24 h, dose level Low): 1838.8 IU/L
- ALT (10 mg/kg, 24 h, dose level Low): 49.2 IU/L
- AST (10 mg/kg, 24 h, dose level Low): 76.8 IU/L
- BUN (10 mg/kg, 24 h, dose level Low): 14.2 mg/dL
- CRE (10 mg/kg, 24 h, dose level Low): 0.2 mg/dL
- DBIL (10 mg/kg, 24 h, dose level Low): 0.012 mg/dL
- GLC (10 mg/kg, 24 h, dose level Low): 179.6 mg/dL
- IP (10 mg/kg, 24 h, dose level Low): 8.6 mg/dL
- K (10 mg/kg, 24 h, dose level Low): 4.3 meq/L
- PL (10 mg/kg, 24 h, dose level Low): 133.2 mg/dL
- RALB (10 mg/kg, 24 h, dose level Low): 2.6 g/dL
- TBIL (10 mg/kg, 24 h, dose level Low): 0.04 mg/dL
- TC (10 mg/kg, 24 h, dose level Low): 68.8 mg/dL
- TG (10 mg/kg, 24 h, dose level Low): 54 mg/dL
- TP (10 mg/kg, 24 h, dose level Low): 5.4 g/dL
- gamma-GTP (10 mg/kg, 24 h, dose level Low): 1.2 IU/L
